The values below come from patent publication US11040954B1, “CXCR3 receptor agonists” (RECEPTOS LLC, priority 2016, dated 2021).

A value given as a limit tells only on which side of the number the result lay.

The target of the test is T1, CXCR3 (Homo sapiens, UniProt P49682).
T1 construct: host or cells: CHO-K1 (cAMP Hunter CHOK1 CXCR3 Gi cell line)
T1 sequence (P49682 1-368): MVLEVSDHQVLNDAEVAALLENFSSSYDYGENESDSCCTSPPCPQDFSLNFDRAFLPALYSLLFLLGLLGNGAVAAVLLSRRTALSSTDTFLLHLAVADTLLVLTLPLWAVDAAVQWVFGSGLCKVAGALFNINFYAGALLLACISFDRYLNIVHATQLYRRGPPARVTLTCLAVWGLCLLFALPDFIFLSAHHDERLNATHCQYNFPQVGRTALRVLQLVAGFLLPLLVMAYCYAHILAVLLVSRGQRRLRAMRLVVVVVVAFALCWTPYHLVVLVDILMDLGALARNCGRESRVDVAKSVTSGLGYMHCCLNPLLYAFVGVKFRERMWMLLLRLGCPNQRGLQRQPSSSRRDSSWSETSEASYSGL
The test can be described thus: CXCR3 cAMP agonist assay (cAMP Hunter CHOK1 CXCR3 Gi cell line, forskolin-stimulated, HitHunter cAMP detection). The class given is cell-based. To be noted: cAMP Hunter CHOK1 CXCR3 Gi cells, 20 μM forskolin, 30 minutes; read-out: Activity (CXCR3 cAMP agonist assay compound EC50). As for the experimental part:
The cAMP Hunter™ CHOK1 CXCR3 Gi cell line was purchased from DiscoveRx. Cells were seeded into a 96-well white assay plate at 50,000 cells/well/94 μl assay buffer (Hank's Buffered Saline Solution, 10 mM HEPES, 0.1% fatty acid-free BSA, pH 7.4) and immediately assayed in suspension. Forskolin was added to 20 μM (5 μl of 400 μM stock) simultaneously with a 12-point dose response curve of compound at 0-10 μM (1 μl of 100× stock in 100% DMSO), and cells were incubated for 30 minutes. A cAMP standard curve is run as an assay control. A CXCL11 dose response was included to determine maximum efficacy. Direct detection of cAMP was carried out using the DiscoveRx HitHunter cAMP kit according to manufacturer's instructions, and luminescence was read using a SpectraMax M5 plate reader.
With `Cc1cc(NC(=O)C(Cc2cccnc2)NC(=O)[C@@H]2Cc3ccccc3CN2C(=O)CCC(=O)c2ccccc2)ccc1Cl` (mixture of isomers) [Compound 3-3], the concentration for a half-maximal effect (EC50) (in general, the concentration at which the effect is half-maximal) was in the range of 250 to 500 nM.
Then `Cc1cc(NC(=O)C(NC(=O)[C@@H]2Cc3ccccc3CN2C(=O)CCC(=O)c2ccccc2)C2CCNCC2)ccc1Cl` (mixture of isomers) [Compound 4-7], with > 500 nM.
In the case of `Cc1cc(NC(=O)C(CC2CCNCC2)NC(=O)[C@@H]2Cc3ccccc3CN2C(=O)CCC(=O)c2ccccc2)ccc1Cl` (mixture of isomers) [Compound 4-11] it was 50 to 250 nM; in that of `NCC[C@H](NC(=O)[C@@H]1Cc2ccccc2CN1C(=O)CCC(=O)c1ccccc1)C(=O)Nc1cc(Cl)c(Cl)cc1O` (racemic) [Compound 4-13], 50 to 250 nM.
As for `Cc1cc(NC(=O)C(CC2CCN(C)CC2)NC(=O)[C@@H]2Cc3ccccc3CN2C(=O)CCC(=O)c2ccccc2)ccc1Cl` (mixture of isomers) [Compound 6-1, (S)—N—((S)-1-((4-chloro-3-methylphenyl)amino)-3-(1-methylpiperidin-4-yl)-1-oxopropan-2-yl)-2-(4-oxo-4-phenylbutanoyl)-1,2,3,4-tetrahydroisoquinoline-3-carboxamide], the EC50 fell in the range of 50 to 250 nM.
Then `Cc1cc(NC(=O)C(CC2CC[N+](C)(C)CC2)NC(=O)[C@@H]2Cc3ccccc3CN2C(=O)CCC(=O)c2ccccc2)ccc1Cl` (mixture of isomers) [Compound 6-2, 4-((S)-3-((4-chloro-3-methylphenyl)amino)-3-oxo-2-((S)-2-(4-oxo-4-phenylbutanoyl)-1,2,3,4-tetrahydroisoquinoline-3-carboxamido)propyl)-1,1-dimethylpiperidin-1-ium iodide], with 50 to 250 nM; and `Cc1cc(NC(=O)C(NC(=O)[C@@H]2Cc3ccccc3CN2C(=O)CCC(=O)c2ccccc2)C2CCN(C)CC2)ccc1Cl` (mixture of isomers) [Compound 6-5], with 50 to 250 nM; and `Cc1cc(NC(=O)C(NC(=O)[C@@H]2Cc3ccccc3CN2C(=O)CCC(=O)c2ccccc2)C2CC[N+](C)(C)CC2)ccc1Cl` (mixture of isomers) [Compound 6-6], with < 50 nM.
Then `NC12CC(CC(NC(=O)[C@@H]3Cc4ccccc4CN3C(=O)CCC(=O)c3ccccc3)C(=O)Nc3ccc(Cl)c(Cl)c3F)(C1)C2` (mixture of isomers) [Compound 22-3], with < 50 nM; and `O=C(CCC(=O)N1Cc2ccccc2CC1C(=O)NC(CCN1CCC(F)CC1)C(=O)Nc1ccc2c(c1)CCC2)c1ccccc1` (racemic) [Compound 23-1, N-(1-((2,3-dihydro-1H-inden-5-yl)amino)-4-(4-fluoropiperidin-1-yl)-1-oxobutan-2-yl)-2-(4-oxo-4-phenylbutanoyl)-1,2,3,4-tetrahydroisoquinoline-3-carboxamide], with > 500 nM.
Then `O=C(CCC(=O)N1Cc2ccccc2CC1C(=O)NC(CCN1CCC(F)CC1)C(=O)Nc1ccc(Cl)c(Cl)c1F)c1ccccc1` (racemic) [Compound 23-3], with < 50 nM; and `Cc1c(Cl)ccc(NC(=O)C(CCN2CCC(O)CC2)NC(=O)[C@@H]2Cc3ccccc3CN2C(=O)CCC(=O)c2ccccc2)c1Cl` (mixture of isomers) [Compound 25-1, (3S)—N-(1-((2,4-dichloro-3-methylphenyl)amino)-4-(4-hydroxypiperidin-1-yl)-1-oxobutan-2-yl)-2-(4-oxo-4-phenylbutanoyl)-1,2,3,4-tetrahydroisoquinoline-3-carboxamide], with 50 to 250 nM; and `Cc1cc(NC(=O)[C@H](CCN2CCC(O)CC2)NC(=O)[C@@H]2Cc3ccccc3CN2C(=O)CCC(=O)c2ccccc2)c(F)cc1Cl` (racemic) [Compound 25-2], with 50 to 250 nM.
On to `Cc1cccc(NC(=O)[C@H](CCN2CCC(O)CC2)NC(=O)[C@@H]2Cc3ccccc3CN2C(=O)CCC(=O)c2ccccc2)c1Cl` (racemic) [Compound 25-3], for which the EC50 lay in the range of 250 to 500 nM.
In the case of `Cc1cc(NC(=O)[C@H](CCCCN)NC(=O)[C@@H]2Cc3ccccc3CN2C(=O)CCC(=O)c2ccccc2)ccc1Cl` (stereo in doubt) [Compound 4-2, (S)—N—((S)-6-amino-1-((4-chloro-3-methylphenyl)amino)-1-oxohexan-2-yl)-2-(4-oxo-4-phenylbutanoyl)-1,2,3,4-tetrahydroisoquinoline-3-carboxamide] it was 250 to 500 nM; in that of `NCCCC[C@H](NC(=O)[C@@H]1Cc2ccccc2CN1C(=O)CCC(=O)c1ccccc1)C(=O)Nc1ccc(Cl)c(Cl)c1` [Compound 1-1, (S)—N—((S)-6-amino-1-((3,4-dichlorophenyl)amino)-1-oxohexan-2-yl)-2-(4-oxo-4-phenylbutanoyl)-1,2,3,4-tetrahydroisoquinoline-3-carboxamide], 50 to 250 nM.
Then `NCCCC[C@H](NC(=O)[C@@H]1Cc2ccccc2CN1C(=O)CCC(=O)c1ccccc1)C(=O)Nc1ccc(Cl)cc1` [Compound 1-2], with 250 to 500 nM.
In the case of `Cc1ccc(NC(=O)[C@H](CCCCN)NC(=O)[C@@H]2Cc3ccccc3CN2C(=O)CCC(=O)c2ccccc2)cc1` [Compound 1-3] it was 50 to 250 nM; in that of `NCCCC[C@H](NC(=O)[C@@H]1Cc2ccccc2CN1C(=O)CCC(=O)c1ccccc1)C(=O)Nc1ccc(-c2ccccc2)cc1` [Compound 1-5], > 500 nM; in that of `COc1ccccc1NC(=O)[C@H](CCCCN)NC(=O)[C@@H]1Cc2ccccc2CN1C(=O)CCC(=O)c1ccccc1` [Compound 1-6], 250 to 500 nM.
Consider `CC(C)c1ccc(NC(=O)[C@H](CCCCN)NC(=O)[C@@H]2Cc3ccccc3CN2C(=O)CCC(=O)c2ccccc2)cc1` [Compound 1-7], for which the EC50 is > 500 nM.
Then `NCCCC[C@H](NC(=O)[C@@H]1Cc2ccccc2CN1C(=O)CCC(=O)c1ccccc1)C(=O)Nc1cccc(F)c1` [Compound 1-8], with > 500 nM; and `NCCCC[C@H](NC(=O)[C@@H]1Cc2ccccc2CN1C(=O)CCC(=O)c1ccccc1)C(=O)Nc1cccc(Cl)c1` [Compound 1-9], with 50 to 250 nM.
In the case of `Cc1cccc(NC(=O)[C@H](CCCCN)NC(=O)[C@@H]2Cc3ccccc3CN2C(=O)CCC(=O)c2ccccc2)c1` [Compound 1-10] it was 50 to 250 nM.
Then `COc1cccc(NC(=O)[C@H](CCCCN)NC(=O)[C@@H]2Cc3ccccc3CN2C(=O)CCC(=O)c2ccccc2)c1` [Compound 1-11], with 250 to 500 nM; and `Cc1ccccc1NC(=O)[C@H](CCCCN)NC(=O)[C@@H]1Cc2ccccc2CN1C(=O)CCC(=O)c1ccccc1` [Compound 1-12], with 250 to 500 nM.
Take `NCCCC[C@H](NC(=O)[C@@H]1Cc2ccccc2CN1C(=O)CCC(=O)c1ccccc1)C(=O)Nc1cccc(C(F)(F)F)c1` [Compound 1-13]: the EC50 fell in the range of 50 to 250 nM.
In the case of `NCCCC[C@H](NC(=O)[C@@H]1Cc2ccccc2CN1C(=O)CCC(=O)c1ccccc1)C(=O)Nc1ccccc1F` [Compound 1-15] it was 250 to 500 nM.
Then `CCc1ccc(NC(=O)[C@H](CCCCN)NC(=O)[C@@H]2Cc3ccccc3CN2C(=O)CCC(=O)c2ccccc2)cc1CC` [Compound 1-16], with 50 to 250 nM.
For `NCCCC[C@H](NC(=O)[C@@H]1Cc2ccccc2CN1C(=O)CCC(=O)c1ccccc1)C(=O)Nc1cc(Cl)cc(Cl)c1` [Compound 1-17], the EC50 fell in the range of 50 to 250 nM.
On to `NCCCC[C@H](NC(=O)[C@@H]1Cc2ccccc2CN1C(=O)CCC(=O)c1ccccc1)C(=O)Nc1ccc(Cl)c(C(F)(F)F)c1` [Compound 1-18], for which the EC50 is < 50 nM.
In the case of `NCCCC[C@H](NC(=O)[C@@H]1Cc2ccccc2CN1C(=O)CCC(=O)c1ccccc1)C(=O)Nc1ccc(C(F)(F)F)c(F)c1` [Compound 1-19] it was 250 to 500 nM; in that of `NCCCC[C@H](NC(=O)[C@@H]1Cc2ccccc2CN1C(=O)CCC(=O)c1ccccc1)C(=O)Nc1ccc(F)c(F)c1` [Compound 1-21], > 500 nM.
As for `NCCCC[C@H](NC(=O)[C@@H]1Cc2ccccc2CN1C(=O)CCC(=O)c1ccccc1)C(=O)Nc1ccc(C(F)(F)F)c(Cl)c1` [Compound 1-22], the EC50 lay in the range of 250 to 500 nM.
Then `NCCCC[C@H](NC(=O)[C@@H]1Cc2ccccc2CN1C(=O)CCC(=O)c1ccccc1)C(=O)Nc1ccc(Cl)cc1F` [Compound 1-23], with 50 to 250 nM; and `Cc1cc(Cl)ccc1NC(=O)[C@H](CCCCN)NC(=O)[C@@H]1Cc2ccccc2CN1C(=O)CCC(=O)c1ccccc1` [Compound 1-24], with 50 to 250 nM.
In the case of `Cc1ccc(NC(=O)[C@H](CCCCN)NC(=O)[C@@H]2Cc3ccccc3CN2C(=O)CCC(=O)c2ccccc2)cc1Cl` [Compound 1-27] it was < 50 nM; in that of `Cc1cc(NC(=O)[C@H](CCCCN)NC(=O)[C@@H]2Cc3ccccc3CN2C(=O)CCC(=O)c2ccccc2)ccc1C(F)(F)F` [Compound 1-28], 50 to 250 nM.
Then `Cc1ccc(NC(=O)[C@H](CCCCN)NC(=O)[C@@H]2Cc3ccccc3CN2C(=O)CCC(=O)c2ccccc2)cc1C` [Compound 1-29], with < 50 nM; and `Cc1ccc(NC(=O)[C@H](CCCCN)NC(=O)[C@@H]2Cc3ccccc3CN2C(=O)CCC(=O)c2ccccc2)cc1C(F)(F)F` [Compound 1-30], with < 50 nM.
Consider `CN(C)CCCC[C@H](NC(=O)[C@@H]1Cc2ccccc2CN1C(=O)CCC(=O)c1ccccc1)C(=O)Nc1ccc(Cl)c(Cl)c1` [Compound 1-31], for which the EC50 is 250 to 500 nM.
